{"source": "paper PMC10115881", "about": "“Disrupting the α-synuclein-ESCRT interaction with a peptide inhibitor mitigates neurodegeneration in preclinical models of Parkinson’s disease” (Nature Communications, 2023)", "key": {"[1]": {"test_system": "endolysosomal flux in SNCA triplication fibroblasts", "assay": "Endolysosomal flux assay, confocal microscopy, SNCA triplication fibroblasts", "format": "cell-based, human", "protocol": "Flux via the endolysosomal pathway was measured with the Lysosome Intracellular Activity Assay Kit which was purchased from Abcam (ab234622) and used according to the manufacturer’s instructions. The kit provides a proprietary lysosome-specific self-quenched substrate which has low background fluorescence, high signal-to-background ratio, and is pH insensitive. In the assay, the substrate is taken up by cells and acts as endocytic cargo which is degraded within an endolysosomal vesicle. Following degradation, the fluorescence signal recovered from the substrate is proportional to the intracellular lysosomal activity. The activity can be measured by fluorescence microscopy or FACS. The assay was performed with HEK293T cells or SNCA triplication fibroblasts (obtained from NINDS Human Genetics Resource Center DNA and Cell Line Repository; NINDS Repository sample number ND27760). Cells were maintained in DMEM supplemented with 10% FBS and 1% pen/strep/glutamine. Cell medium was replaced with fresh medium containing DMSO, Leupeptin, or Bafilomycin A1 and incubated for 1 h at 37 °C with 5% CO2. Self-quenched substrate was added into each condition and incubated for 1 h (HEK293T cells) or overnight (SNCA triplication fibroblasts) at 37 °C with 5% CO2. […] For HEK293T cells, cells were resuspended in PBS containing DMSO or Leupeptin and analyzed by FACS. […]"}, "[2]": {"test_system": "A53T a-syn-CHMP2B interaction", "assay": "Co-immunoprecipitation: disruption of a-syn-CHMP2B interaction", "format": "cell-based", "conditions": "HEK293 co-immunoprecipitation", "protocol": "HEK293T cells were co-transfected with Flag-tagged target protein, HA-tagged source protein, and GFP-tagged peptide or GFP. Cells were lysed 48 h after transfections with radioimmune precipitation assay buffer (50 mM Tris-HCl pH 7.4, 1% Nonidet P-40, 150 mM NaCl, 1 mM EDTA, 10 mM Na3VO4, 10 mM sodium pyrophosphate, 25 mM NaF, 1× protease inhibitor mixture (Sigma)) for 30 min at 4 °C and co-immunoprecipitated with Flag beads (Clontech). The resulting immunocomplexes were analyzed by immunoblot using the appropriate antibodies. Protein samples were separated using 4–20% Mini-PROTEAN Tris-glycine gels (Bio-Rad) transferred to PVDF membranes and blocked in 5% milk containing PBS-Tween-20 (0.1%) for 1 h. PVDF membranes were then incubated with specified primary antibodies followed by incubation with horseradish peroxidase-conjugated secondary antibodies (anti-mouse HRP-linked, Cell Signaling, catalog #7076, 1:5000; anti-rabbit HRP-linked, Cell Signaling, catalog #7074, 1:5000) and detected using enhanced chemiluminescence (GE Healthcare). HA antibodies were obtained from Santa Cruz (catalog #7392, 1:2000), GFP antibodies were purchased from Abcam (catalog #ab290, 1:2000), and Flag antibodies were purchased from Sigma (catalog #A8592, 1:1000)."}, "A53T a-syn": {"test_system": "A53T a-syn", "assay": "A53T a-syn immunofluorescence in rat cortical neurons", "format": "cell-based, human", "conditions": "primary rat cortical neurons", "text": "Pregnant rats (E17) of the Sprague-Dawley strain were purchased from Envigo. Embryos were surgically removed from the mothers and cortices dissected in Hanks Balanced salt solution (Gibco). The meninges were removed, and cells were dissociated using a papain dissociation system (Worthington) before being resuspended in Neurobasal medium A supplemented with antibiotic-antimycotic solution (Gibco), L-glutamine substitute (GlutaMAX™; Gibco) and factor B27 (Gibco). […]\nAfter fixation, cells were permeabilized with 0.2% Triton-X-100 for 15 min, washed three times with PBS and then incubated with blocking solution (1% BSA, 22.52 mg/mL glycine, 0.1% Tween-20 in PBS or 0.4% saponin, 1% BSA, and 5% goat or donkey serum in PBS) for 1 h. […] Following another three washes with PBS, nuclei were counterstained with DAPI (ThermoFisher) and then coverslips were mounted on slides using Dako fluorescence mounting medium (Agilent) and sealed using clear nail varnish.\nConfocal images of immunofluorescent staining were acquired with a Zeiss LSM880 confocal microscope equipped with 405, 488, 555, and 639 nm laser lines. All images were taken within the linear range at constant gain and pinhole settings at optimal resolution settings determined by the software. […]"}, "full-length YFP": {"test_system": "full-length YFP", "assay": "YFP fluorescence in rat cortical neurons, full length YFP", "format": "cell-based", "text": "Adeno-associated virus (AAV) of a 1/2 serotype was used to express A53T a-syn (AAV-A53T), a truncated version of A53T a-syn lacking amino acids 103–140 (Δa-syn(103–140)), and WT a-syn, fused to either the N-terminal half of YFP (AAV-V1S) or the C-terminal half of YFP (AAV-SV2), all under the control of the CAG promoter, a hybrid of the chicken beta-actin (CBA) promoter fused with the cytomegalovirus (CMV) immediate early enhancer sequence (GeneDetect Ltd.)[46].\nPregnant rats (E17) of the Sprague-Dawley strain were purchased from Envigo. Embryos were surgically removed from the mothers and cortices dissected in Hanks Balanced salt solution (Gibco). […]\nConfocal images of primary cortical neurons, iPSC-derived dopaminergic neurons, and LAMP1 staining within the SN were processed using Imaris software (Oxford instruments). […] Mean pixel intensity per GFP^+ cell (for experiments using GFP-tagged peptides) or RFP^+ cell (for experiments using RFP-tagged peptides) was calculated for a-syn or LAMP1 signal using the software’s surfaces module. The software’s surfaces module was used to identify GFP^+/NeuN^+ cells, and number of pS129 a-syn^+ puncta per GFP^+/NeuN^+ cortical neuron was counted using the software’s spots module. Mean pixel intensity per RFP^+/NeuN^+ cortical neuron was calculated for Rab7, cathepsin B, or cathepsin D signals using the software’s surfaces module. […]"}}, "data": [{"sequence": "DEEIERQLKALG [PDpep1.3]", "values": [{"measurement": "Effect on endolysosomal flux in fibroblasts", "setting": "[1]", "value": "increased endolysosomal flux"}, {"measurement": "Effect on a-syn-CHMP2B interaction", "setting": "[2]", "value": "disrupted this a-syn-CHMP2B interaction"}, {"measurement": "Effect on A53T a-syn fluorescence", "setting": "A53T a-syn", "value": "significant decrease in A53T a-syn fluorescence intensity"}, {"measurement": "Effect on YFP fluorescence, full-length YFP", "setting": "full-length YFP", "value": "had no effect on fluorescence of YFP alone"}]}]}
